Reference: patent US6107469A, “Minimum recognition unit of a pem mucin tandem repeat specific monoclonal antibody” (Cancer Therapeutics Limited, priority 1991, dated 2000)
Entries after “also recorded” stand apart in the source; their conditions may differ.

System: immobilised mucin receptor peptide (YVTSAPDTRPAPGST, the epitope sequence from the mucin molecule)
Test: Equilibrium dialysis binding of I125-labelled EPPT peptides to immobilised mucin receptor peptide
Conditions: 24-48 hours at room temperature, FIGS. 2 and 3
Procedure: Preparation of immobilised mucin receptor peptide. 7.5 mg of YVTSAPDTRPAPGST (SEQ ID No 18) (the epitope sequence from the mucin molecule) was dissolved in 100 mM sodium phosphate buffer pH8. This was mixed with 7.5 mg of bovine serum albumin (BSA) and made up to 0.5 ml with buffer. 5 μl of 25% glutaraldehye was added, mixed and left to stand at room temperature for 15 minutes. A further 2.5 μl of glutaraldehyde was then added and the mixture left for a further 15 minutes.
Following the incubation, 100 μl of 1M glycine pH6 was added and left for 10 minutes to quench the glutaraldehyde. The reaction mixture was then aliquoted into 100 μl portions and stored at -20° C. until use.
Radiolabelling of EPPT peptides prior to binding assays. Peptides were dissolved in phosphate buffered saline, 100 mM sodium phosphate pH8, or 5% DMSO in sodium phosphate. […] 1 ml fractions were collected from the eluate and assayed for radioactivity.
Binding of EPPT peptides to immobilised mucin receptor peptide. […] Samples are removed from both sides of the membrane and assayed for the presence of radioactivity. […] Following incubation and equilibration, samples were removed from the dialysis module and counted for the presence of I^125. The radioactivity was then converted to amount of peptide for the purposes of determining the amount bound to the immobilised receptor peptide.

## H-EPPTRTFAY-OH [EPPTRTFAY, NH2-EPPTRTFAY-COOH]
  binding to the mucin receptor peptide: no real binding; also recorded: does not itself appear to bind
